Results as given in US8809341B2, “2,4-pyrimidinediamine compounds and uses as anti-proliferative agents” (Rigel Pharmaceuticals, Inc., priority 2003, dated 2014).

System: A549 cells
Assay: in vitro antiproliferation assay, A549 (lung)
Assay type: cell-based
Settings: A549 (lung) cells, antiproliferation
Description: The IC50 values of various compounds against a various different tumor cell lines were determined using standard in vitro antiproliferation assays. The tumor cell lines tested were as follows: A549 (lung); H1299 (lung), ACHN (kidney/p53 wt), CAKI (renal cell carcinoma), NCI-H460 (lung); HCT116 (colon/p53w0; HELA (cervix/p53 wt), HUH7 (liver/p53 wt), HUVEC (primary endothelial), LNCAP (prostate), HT-29 (colon); MCF-7 (breast); MCF-7 (breast/ER positive), MDA MB435S (breast); MDA MB231 (breast/ER negative), DU145 (prostate); BxPC-3 (pancreatic); SKOV-3 (ovarian); HepG2 (hepatic), NDHF primary normal human dermal fibroblast), SKMEL28 (breast/p53mut), SKMEL5 (breast/p53 wt), U20S (bone) and PC3 (prostate). […] A blank indicates the specified compound was not tested against the specified cell line.

Compound | IC50
OCCOc1cccc(Nc2nc(Nc3cccc(O)c3)ncc2F)c1 [compound 939] | > 20 µM
Oc1c(Cl)cc(Nc2ncc(F)c(Nc3cc(Cl)c(O)c(Cl)c3)n2)cc1Cl [compound 941] | > 20 µM
Cc1cc(Nc2ncc(F)c(Nc3cccc(O)c3)n2)cc(Cl)c1O [compound 943] | ≤ 20 µM
CC(C)(C)c1cccc(Nc2ncc(F)c(Nc3cccc(O)c3)n2)c1 [compound 951] | > 20 µM
COc1ccc(Nc2nc(Nc3cccc(C(C)(C)C)c3)ncc2F)cc1OC [compound 953] | > 20 µM
CCOc1cccc(Nc2ncc(F)c(Nc3cccc(C(C)C)c3)n2)c1 [compound 964] | > 20 µM
CC(C)c1cccc(Nc2nc(Nc3cccc(OCCO)c3)ncc2F)c1 [compound 966] | ≤ 20 µM
OCCOc1cccc(Nc2ncc(F)c(Nc3ccc(CO)c(CO)c3)n2)c1 [compound 967] | > 20 µM

The remaining lines, values ahead:

IC50 | Compound
≤ 20 µM | OCCOc1ccc(Nc2ncc(F)c(Nc3cccc(O)c3)n2)cc1 [compound 934]
> 20 µM | CC(C)c1ccc(Nc2nc(Nc3cccc(OCCO)c3)ncc2F)cc1 [compound 935]
> 20 µM | COC(=O)COc1ccc(Nc2ncc(F)c(Nc3ccc(C(C)C)cc3)n2)cc1 [compound 936]
≤ 20 µM | CC(C)c1ccc(Nc2nc(Nc3ccc(OCCO)cc3)ncc2F)cc1 [compound 937]
> 20 µM | CNC(=O)COc1cccc(Nc2ncc(F)c(Nc3cccc(C(C)C)c3)n2)c1 [compound 965]

Same assay, conditions: A549 (lung) cells, in vitro antiproliferation

Compound | IC50
Fc1cc(Nc2ncc(F)c(Nc3ccc(C(F)(F)F)c(F)c3)n2)ccc1C(F)(F)F [compound 703] | > 20 µM
Fc1cnc(Nc2cccc(OC(F)(F)F)c2)nc1Nc1cccc(OC(F)(F)F)c1 [compound 705] | > 20 µM
Fc1cnc(Nc2ccc(Cl)c(C(F)(F)F)c2)nc1Nc1ccc(Cl)c(C(F)(F)F)c1 [compound 706] | > 20 µM
CCOc1cccc(Nc2ncc(F)c(Nc3cccc(OCC)c3)n2)c1 [compound 707] | ≤ 20 µM
COc1cccc(Nc2ncc(F)c(Nc3cccc(OC)c3)n2)c1 [compound 708] | ≤ 20 µM
Oc1cccc(Nc2ncc(F)c(Nc3cccc(O)c3)n2)c1 [compound 711] | ≤ 20 µM
COc1ccc(Nc2ncc(F)c(Nc3cccc(O)c3)n2)cc1OC [compound 712] | > 20 µM
COc1ccc(Nc2nc(Nc3cccc(O)c3)ncc2F)cc1OC [compound 715] | ≤ 20 µM
Fc1cnc(Nc2ccc(Cl)cc2)nc1Nc1ccc(Cl)cc1 [compound 716] | > 20 µM
CCc1ccc(Nc2ncc(F)c(Nc3ccc(CC)cc3)n2)cc1 [compound 722] | > 20 µM
COC(=O)COc1ccc(Nc2ncc(F)c(Nc3ccc(OCC(=O)OC)cc3)n2)cc1 [compound 723] | ≤ 20 µM
COc1ccc(Nc2ncc(F)c(Nc3ccc(OC)c(O)c3)n2)cc1O [compound 725] | ≤ 20 µM
Oc1ccc(Nc2ncc(F)c(Nc3ccc(O)cc3)n2)cc1 [compound 730] | ≤ 20 µM
Cc1cc(Nc2ncc(F)c(Nc3ccc(O)c(C)c3)n2)ccc1O [compound 731] | > 20 µM
O=C(O)COc1ccc(Nc2ncc(F)c(Nc3ccc(OCC(=O)O)cc3)n2)cc1 [compound 733] | > 20 µM
CNC(=O)COc1ccc(Nc2ncc(F)c(Nc3ccc(OCC(=O)O)cc3)n2)cc1 [compound 734] | > 20 µM
CCOC(=O)COc1ccc(Nc2ncc(F)c(Nc3ccc(OCC(=O)OCC)cc3)n2)cc1 [compound 737] | > 20 µM
COC(=O)COc1ccc(Nc2ncc(F)c(Nc3ccc(OCC(=O)OC(C)(C)C)cc3)n2)cc1 [compound 738] | > 20 µM
CC(C)(C)OC(=O)COc1ccc(Nc2ncc(F)c(Nc3ccc(OCC(=O)OC(C)(C)C)cc3)n2)cc1 [compound 739] | > 20 µM
COc1cc(Nc2ncc(F)c(Nc3cc(OC)c(OC)c(OC)c3)n2)cc(OC)c1OC [compound 743] | > 20 µM
Oc1cccc(Nc2nc(Nc3ccc(OCCN4CCOCC4)cc3)ncc2F)c1 [compound 744] | ≤ 20 µM
COc1cc(Nc2ncc(F)c(Nc3cccc(O)c3)n2)cc(OC)c1OC [compound 760] | > 20 µM
CNC(=O)COc1cccc(Nc2ncc(F)c(Nc3cccc(C(F)(F)F)c3)n2)c1 [compound 770] | ≤ 20 µM
CNC(=O)COc1cccc(Nc2nc(Nc3cc(OC)cc(OC)c3)ncc2F)c1 [compound 771] | ≤ 20 µM
CNC(=O)COc1cccc(Nc2ncc(F)c(Nc3ccc(OC)c(Cl)c3)n2)c1 [compound 788] | ≤ 20 µM

Results, then the compound that gave them:

IC50 | Compound
≤ 20 µM | CN(C)CCOc1ccc(Nc2ncc(F)c(Nc3cccc(O)c3)n2)cc1 [compound 693]
> 20 µM | CCOc1ccc(Nc2nc(Nc3ccc(OC)c(OC)c3)ncc2F)cc1 [compound 709]
> 20 µM | CCOc1ccc(Nc2nc(Nc3cccc(O)c3)ncc2F)cc1 [compound 714]
> 20 µM | CCOC(=O)COc1ccc(Nc2ncc(F)c(Nc3cccc(O)c3)n2)cc1 [compound 729]
> 20 µM | O=C(O)COc1ccc(Nc2ncc(F)c(Nc3cccc(Cl)c3)n2)cc1 [compound 736]
> 20 µM | CC(C)Oc1ccc(Nc2ncc(F)c(Nc3ccc(OC(C)C)cc3)n2)cc1 [compound 745]

Same assay, conditions: Homo sapiens; IC50 class against A549 (lung) tumor cells

IC50 | Compound
≤ 20 µM | CC(C)(C)c1cc(Nc2nc(Nc3cccc(N4CCOCC4)c3)ncc2F)n[nH]1 [compound 199]

Same assay, conditions: Table 5; in vitro antiproliferation, A549 (lung) cells

IC50 | Compound
> 20 µM | O=C(COc1ccc(Nc2ncc(F)c(Nc3ccc4c(c3)OCCO4)n2)cc1)NCCO [compound 474]
> 20 µM | CCCCCCOc1ccc(Nc2ncc(F)c(Nc3ccc4c(c3)OCCO4)n2)cc1 [compound 477]
≤ 20 µM | CCOc1ccc(Nc2ncc(F)c(Nc3ccc4c(c3)OCCO4)n2)cc1 [compound 478]
> 20 µM | CCCCOc1ccc(Nc2ncc(F)c(Nc3ccc4c(c3)OCCO4)n2)cc1 [compound 479]
> 20 µM | CCOC(=O)COc1ccc(Nc2ncc(F)c(Nc3ccc4c(c3)OCCO4)n2)cc1 [compound 480]
> 20 µM | CN(C)C(=O)COc1cccc(Nc2ncc(F)c(Nc3ccc4c(c3)OCCO4)n2)c1 [compound 481]
> 20 µM | Oc1cccc(Nc2ncc(F)c(Nc3ccc4c(c3)OCCO4)n2)c1 [compound 482]
> 20 µM | Fc1ccc(Nc2ncc(F)c(Nc3ccc4c(c3)OCCO4)n2)cc1Cl [compound 485]
> 20 µM | Fc1ccc(Nc2ncc(F)c(Nc3ccc4c(c3)OCCO4)n2)cc1 [compound 487]
> 20 µM | CCc1ccc(Nc2ncc(F)c(Nc3ccc4c(c3)OCCO4)n2)cc1 [compound 489]
> 20 µM | O=C(O)COc1ccc(Nc2ncc(F)c(Nc3ccc4c(c3)OCCO4)n2)cc1 [compound 490]
> 20 µM | CC(=O)COc1cccc(Nc2ncc(F)c(Nc3ccc4c(c3)OCCO4)n2)c1 [compound 492]
> 20 µM | CNCCOc1cccc(Nc2ncc(F)c(Nc3ccc4c(c3)OCCO4)n2)c1 [compound 498]
> 20 µM | Fc1cnc(Nc2cccc(C(F)(F)F)c2)nc1Nc1ccc2c(c1)OCCO2 [compound 514]
≤ 20 µM | O=C(COc1cccc(Nc2ncc(F)c(Nc3ccc4c(c3)OCCO4)n2)c1)NC1CC1 [compound 520]
≤ 20 µM | OCCOc1cccc(Nc2ncc(F)c(Nc3ccc4c(c3)OCCO4)n2)c1 [compound 576]
> 20 µM | COC(=O)COc1cccc(Nc2ncc(F)c(Nc3ccc4c(c3)OCCO4)n2)c1 [compound 586]
≤ 20 µM | OCCOc1ccc(Nc2ncc(F)c(Nc3ccc4c(c3)OCCO4)n2)cc1 [compound 587]

Same assay, conditions: Table 7; in vitro antiproliferation, A549 (lung) cells

Compound | IC50
CCOC(=O)c1cc2cc(Nc3ncc(F)c(Nc4ccc5c(c4)OCCO5)n3)ccc2[nH]1 [compound 618] | ≤ 20 µM
O=C(O)c1cc2cc(Nc3ncc(F)c(Nc4cccc(O)c4)n3)ccc2[nH]1 [compound 621] | > 20 µM

Second part, the compound after the results:

IC50 | Compound
> 20 µM | CCOC(=O)c1cc2cc(Nc3ncc(F)c(Nc4ccc(C(C)(C)C)cc4)n3)ccc2[nH]1 [compound 617]
> 20 µM | COC(=O)c1cc2cc(Nc3ncc(F)c(Nc4ccc(C(C)(C)C)cc4)n3)ccc2o1 [compound 619]
> 20 µM | CC(C)(C)c1ccc(Nc2nc(Nc3ccc4oc(C(=O)O)cc4c3)ncc2F)cc1 [compound 622]
> 20 µM | COC(=O)c1cc2cc(Nc3ncc(F)c(Nc4cccc(OC(C)C)c4)n3)ccc2o1 [compound 623]
> 20 µM | O=C(c1cc2cc(Nc3ncc(F)c(Nc4cccc(O)c4)n3)ccc2o1)N1CCOCC1 [compound 624]
> 20 µM | CNC(=O)c1cc2cc(Nc3ncc(F)c(Nc4cccc(O)c4)n3)ccc2o1 [compound 627]
> 20 µM | CNC(=O)c1cc2cc(Nc3ncc(F)c(Nc4ccc(C(C)(C)C)cc4)n3)ccc2o1 [compound 628]
> 20 µM | O=C(NCCO)c1cc2cc(Nc3ncc(F)c(Nc4cccc(O)c4)n3)ccc2o1 [compound 630]
> 20 µM | COC(=O)c1cc2cc(Nc3ncc(F)c(Nc4ccc5c(c4)OCCO5)n3)ccc2o1 [compound 638]
> 20 µM | O=C(O)c1cc2cc(Nc3ncc(F)c(Nc4ccc5c(c4)OCCO5)n3)ccc2o1 [compound 639]
> 20 µM | CC(C)Oc1ccc(Nc2nc(Nc3ccc4oc(C(=O)N5CCCC5)cc4c3)ncc2F)cc1 [compound 640]
> 20 µM | COC(=O)c1cc2cc(Nc3ncc(F)c(Nc4ccc(OC(C)C)cc4)n3)ccc2o1 [compound 641]
> 20 µM | CNC(=O)c1cc2cc(Nc3ncc(F)c(Nc4cccc(C(C)(C)C)c4)n3)ccc2o1 [compound 675]

Same assay, conditions: in vitro antiproliferation, A549 (lung) cells; Table 4; compounds with no designated stereochemistry tested as racemate

IC50 | Compound
≤ 20 µM | CC1(C)Oc2ccc(Nc3nc(Nc4cc(Cl)cc(Cl)c4)ncc3F)cc2NC1=O [compound 308]
